Source: patent publication US10238623B2, “C14-hydroxyl esterified amino acid derivative of triptolide, and preparation method and use thereof” (HANGZHOU WEBEN PHARMACEUTICALS INC, priority 2015, dated 2019)
Where “and” joins values, the source holds several entries; their conditions need not be identical. Identical values can stand only once.

How the values were obtained:
[1] = system: human leukemia cells (Jurkat, CEM, Molt-4, Sup-B15); assay: Therapeutic window over 4 types of human leukemia cells (MTT); format: cell-based; settings: for 4 different types of human leukemia cells
Method: (§1) 5000 well-grown leukemia cells or normal human blood cells were taken and seeded into wells of a 96-well cell culture plate. The medium was 1640 cell medium containing 10% fetal bovine serum. 14-D-Valine-TPL with different concentrations was added, and after being uniformly mixed, the plate was placed in a carbon dioxide (5% CO2) cell incubator, and incubated at 37° C. for 72 hours. The concentration of live cells was then determined using the MTT assay. In this experiment, the cell viability in the control group (without the compound treatment) was set to be 100%, and the cell viability (%) after the action of the compound the half maximal growth inhibitory concentration of leukemia cells at 72 hours (IC50 value at 72 hours) and the therapeutic window index were calculated. Therapeutic window index=IC50 value of normal blood cells/IC50 value of leukemia cells. […] A larger therapeutic window indicates a better selectivity of the compound for tumor cells.

[2] = system: human acute monocytic leukemia THP-1 cells; assay: THP-1 subcutaneous xenograft in NOD/SCID mice; format: in vivo; settings: for Tumor weight: THP-1, individual mice, end of experiment
Method: (§2) 7-week old female NOD/SCID mice were taken and inoculated subcutaneously with 1×10^7 cells (0.2 ml) per mouse in axilla, with human acute myelogenous leukemia KG-1a cells on the left and human acute monocytic leukemia THP-1 cells on the right. When tumors grew to a tumor size of around 0.5 cm, the mice were randomized into groups with 3 mice each. An equivalent amount of PBS was used for the control group, and the 14-D-Valine-TPL group was divided into two groups with 0.2 mg/kg body weight and 0.4 mg/kg body weight: intragastric administration 2 times a day (one at 8 a.m. and one at 4 p.m.) for consecutive 14 days of treatment. An observation was made for total 30 days, during which the conditions of the mice such as tumor size, weight, activity, diet, and the like were measured. At the end of the experiment, the mice were sacrificed, tumor tissues were taken and the tumors were weighed, and major organs and tissues of the mice such as liver, spleen, heart, lung, large intestine, small intestine, and the like were examined.

HL-60 = assay: MTT growth inhibition, HL-60 cells, 72 h; format: cell-based; settings: Homo sapiens, HL-60, MTT
Method: (§3) 5000 well-grown leukemia cells were taken and seeded into wells of a 96-well cell culture plate. The medium was 1640 cell medium containing 10% fetal bovine serum. 14-D-Valine-TPL with different concentrations was added, and after being uniformly mixed, the plate was placed in a carbon dioxide (5% CO2) cell incubator, and incubated at 37° C. for 72 hours. The concentration of live cells was then determined using the MTT assay. In this experiment, the cell viability in the control group (without the compound treatment) was set to be 100%, and the cell viability (%) after the action of the compound and the half maximal growth inhibitory concentration of leukemia cells at 72 hours (IC50 value at 72 hours) were calculated.

[3] = Body weight and organ examination of tumour-bearing mice; format: in vivo, NOD/SCID mice; settings: for Body weight: mice bearing KG-1a and THP-1, 14 days, individual mice, listed as DV
Method: as §2
as §2, with “the left.” for “the left and human acute monocytic leukemia THP-1 cells on the right.”, “around 50-100 mm^3,” for “around 0.5 cm,”, “the TPL-LLV” for “the 14-D-Valine-TPL”, “with 0.23” for “with 0.2”, “and 0.46” for “and 0.4”, “intragastric administration,” for “intragastric administration”
as §2, with “the left.” for “the left and human acute monocytic leukemia THP-1 cells on the right.”, “around 50-100 mm^3,” for “around 0.5 cm,”, “the TPL-DLV” for “the 14-D-Valine-TPL”, “with 0.23” for “with 0.2”, “and 0.46” for “and 0.4”, “intragastric administration,” for “intragastric administration”
7-week old female NOD/SCID mice were taken and inoculated subcutaneously with 1×10^7 cells (0.2 ml) per mouse in axilla, with human acute myelogenous leukemia KG-1a cells on the left. When tumors grew to a tumor size of around 50-100 mm^3, the mice were randomized into groups with 3 mice each. An equivalent amount of PBS was used for the control group, and the TPL-DLV group was divided into two groups with 0.32 mg/kg body weight and 0.64 mg/kg body weight: intragastric administration, 2 times a day (one at 8 a.m. and one at 4 p.m.) for consecutive 14 days of treatment. An observation was made for total 30 days, during which the conditions of the mice such as tumor size, weight, activity, diet, and the like were measured. At the end of the experiment, the mice were sacrificed, tumor tissues were taken and the tumors were weighed, and major organs and tissues of the mice such as liver, spleen, heart, lung, large intestine, small intestine, and the like were examined. […]

Sup-B15 = assay: MTT growth inhibition, Sup-B15 cells, 72 h; format: cell-based, human
Method: as §1, §3
as §3, with “well-grown lymphocytes” for “well-grown leukemia cells”

[4] = dose of 0.4 mg per kilogram of the body weight

CC(C)[C@@H](N)C(=O)O[C@@H]1[C@@]2(C(C)C)O[C@H]2[C@@H]2O[C@]23[C@]12O[C@H]2C[C@H]1C2=C(CC[C@@]13C)C(=O)OC2 [14-D-Valine-TPL, 14-Dextro-Valine-Triptolide]
therapeutic window indices [1]: 5.54-18.58
Tumor weight ([2]; trifluoroacetate 0.2 mg/kg intragastric 2 times a day, 14 days, listed as DV): 0 g (3×) and 0.21 g and 0.06 g and 0.28 g
Tumor weight ([2]; trifluoroacetate 0.4 mg/kg intragastric 2 times a day, 14 days): 0 g
growth of THP-1 in mice in vivo (in words) ([2]; THP-1 xenograft, intragastric 2 times a day, 14 days, dose-dependent effect): significantly inhibit the growth
regression of THP-1 xenograft tumors [2, 4]: complete regression
IC50 (HL-60): 65.8 nM
weight loss in the mice (in words) [3, 4]: no significant weight losses
Body weight ([3]; 0.2 mg/kg intragastric 2 times a day, mice bearing KG-1a xenografts): 18.5 g and 20.2 g and 19.9 g and 18.1 g and 19.0 g and 20.4 g
Body weight ([3]; 0.2 mg/kg intragastric 2 times a day, mice bearing THP-1 xenografts): 18.5 g and 20.2 g and 19.9 g and 18.1 g and 19.0 g and 20.4 g
Body weight ([3]; 0.4 mg/kg intragastric 2 times a day, mice bearing KG-1a xenografts): 20.4 g and 21.0 g and 21.1 g and 21.4 g and 20.8 g and 19.1 g
Body weight ([3]; 0.4 mg/kg intragastric 2 times a day, mice bearing THP-1 xenografts): 20.4 g and 21.0 g and 21.1 g and 21.4 g and 20.8 g and 19.1 g
anatomical examination of major organs (heart, lung, liver, spleen, large intestine, small intestine) ([3]; mice of Example 9): no significant abnormalities
IC50 (Sup-B15; Homo sapiens, SUP-B15, 72 h): 20.7 nM
Therapeutic window (Sup-B15; IC50 of normal blood cells/IC50 of Sup-B15): 9.73
